“Also recorded” adds a separate entry of the source. Where two headings read alike, the source gives them in different places. One block for each substance: values may come before it. Square brackets hold non-standard residues; d marks the D form. Ends that are not written are not given here. NMeA = CN[C@@H](C)C(=O)O; Abu = CC[C@H](N)C(=O)O; Aib = CC(C)(N)C(=O)O
Assays:
[1] = system: Mv-1-Lu mink lung epithelial cells; assay: Inhibition of DNA synthesis (3H-thymidine incorporation) and proliferation of Mv-1-Lu cells; type: cell-based; settings: for Inhibition in comparison to cytomodulin (Inhib by new peptide/Inhib by cytomodulin): 3H-thymidine incorporation, MV-1-Lu cells; for Inhibition of DNA synthesis / proliferation of Mv-1-Lu cells (in words): 10−9 to 10−6 M range; for % Inhibition of incorporation of 3H-thymidine / 3H-Radioactivity: MV-1 Lu cells; for 3H-Radioactivity: control without peptide 3.57; for Bioactivity as agonist (tested as for DNA inhibition): Example 7
Protocol: The effect of TGF-β and cytomodulin were evaluated by determining the rate of […]thyidine incorporation into total acid-insoluble DNA and cell number. See generally, Sampath et al., Journal of Biological Chemistry, 267, pp. 20352-20362 (1992). DNA synthesis rates were determined in triplicate cultures after 24 hour treatment with various concentrations (10−9 M to 10^−6M) of either TGF-β or cytomodulin (which was synthesized by the Merrifield method) by adding [methyl-^3H]thymidine (2 μCi/ml, 80 Ci/mmol) for 6 hours before the termination of the culture. Incorporation was terminated by aspiration of the medium, and after washing three times with phosphate-buffered saline, the trichloroacetic acid (10%)-precipitated radioactive DNA was extracted with 1.0% (w/v) sodium dodecyl sulfate, 0.1 M NaOH and quantitated by liquid scintillation counting. For cell number determination, 1×10^5 cells were plated in flasks in MEM containing 10% FBS, and after 24 hours, the growth medium was replaced with serum-free medium containing various conceptions of TGF-β and cytomodulin. Triplicate cultures were harvested every 24 hours for the duration of 7 days, and the cell number was determined by counting cells released by trypsin digestion in a fixed volume hemacytometer.
The numbers shown at the various concentration are the ratio of the inhibition rate of the peptide being tested over the inhibition rate of cytomodulin (SEQ ID NO: 1) at the same concentration.
Tests for bioactivity were conducted as described above for DNA inhibition.

[2] = system: NRK-49 F normal rat kidney fibroblasts; assay: Growth and colony formation by NRK-49 F fibroblasts in soft agar; type: cell-based; settings: for Colony formation in soft agar: 100 nM
Protocol: The original assay for TGF-β, the ability to promote anchorage independent growth of normal fibroblasts is still one of the hallmarks of TGF-β activity. NRK-49 F fibroblasts were grown at 37° C. in DEM supplemented with 10% fetal calf serum. […] To this, either 100 nM TGF-β (positive control) or 100 nM cytomodulin was added. NRK49 F fibroblasts (5×10^4 cells/ml) were mixed with 0.3% agar were plated on the bottom of 35 mm culture dishes. Colony formation was observed starting on day 3 of culture.

[3] = system: human osteogenic sarcoma (HOS) cell line; assay: Gene expression in HOS cells (Northern analysis); type: cell-based
Protocol: (§1) Total cellular RNA was isolated using essentially the method described by Maniatis. Sambrook et al., Molecular Cloning: A Laboratory Marual, Cold Spring Harbor Laboratory Press, Second Edition (1989). Cells were lysed with 0.5% SDS and 0.1 potassium acetate. The lysate was extracted with phenol and centrifuiged at 5000 rpm for 15 minutes. The aqueous phase was precipitated with 2 volumes ethanol in 0.1 M Tris, pH 8.0 and 0.2 M NaCl. The pellet was resuspended and quantitated by measuring the ultraviolet absorbance at 260 nm. RNA purity was assessed by comparing the ultraviolet absorbance at 260 inm with that at 280 nm.
(§2) RNA (10 μg/lane) was electrophoresed at 3 to 4 v/cm through a 0.7% agarose, 2.2 M formaldehyde denaturing gel. RNA was transferred by capillary transfer to nylon membranes. RNA integrity, gel loading, and transfer efficiency were assessed by methylene blue stained 28S and 18 S bands. The filters were baked at 80° C. for 2 hours to immobilize the RNA. After baking, the filters were hybridized at 65° C. in 0.5 M NaPO4 buffer, pH 7.0, containing 1 mM EDTA, 7% sodium dodecyl sulfate, and 1% bovine serum albumin. cDNA probes were labeled with DDIG […] by the random primer method, using Klenow enzyme. Hybridization for 18 hours at 65° C. followed by washing, was performed.
(§3) Data were analyzed by scanning digoxigenin-dVTP according to manufacturer's procedure (Boehringer Mannheim Biochemica, DIG DNA labelling kit, Cat. No. 1175033).

human dermal fibroblasts = assay: Gene expression in human dermal fibroblasts (Northern analysis); type: cell-based
Protocol: as §1, §2, §3

TGF-β activity = assay: TGF-β like activity, overall statement, test not specified; type: cell-based
[4] = system: NRK-49 F normal rat kidney fibroblasts; settings: in the absence of EGF and PDGF; from Massagu, J. Biol. Chem. 259 (1984); cited from earlier work
[5] = 1 mM peptide (so in the source)

Substance: A-N-V-A-E-K (ANVAEK; TGF-beta mimic) [SEQ ID NO:15]
Inhibition in comparison to cytomodulin (Inhib by new peptide/Inhib by cytomodulin) ([1]; 10 nM): 0.80
Inhibition in comparison to cytomodulin (Inhib by new peptide/Inhib by cytomodulin) ([1]; 100 nM): 1.00

Substance: A-N-V-A-E-N-A (ANVAENA; TGF-beta mimic) [cytomodulin]
Colony formation in soft agar ([2]; with EGF and PDGF): formed colonies to approximately the same extent as the TGF-β cultures; also recorded: much larger colonies
Colony formation in soft agar ([2]; without EGF and PDGF): did induce colony formation; also recorded: formation of small colonies
Expression of TGF-β [3]: increased the expression
Expression of alkaline phosphatase [3]: stimulate; also recorded: increased the expression
Expression of osteonectin [3]: stimulate
Expression of type I collagen [3]: increased the expression
Inhibition of DNA synthesis / proliferation of Mv-1-Lu cells (in words) [1]: inhibition of DNA synthesis; also recorded: at least as much as TGF-β
Expression of type I collagen (human dermal fibroblasts): induction of increased expression

Substance: E-G-I-A-G-K (EGIAGK; TGF-beta mimic) [SEQ ID NO:8]
TGF-β like activity (TGF-β activity): did not display significant TGF-β activity

Substance: G-G-Q-I-A-N-I (GGQIANI; TGF-beta mimic) [SEQ ID NO:7]
TGF-β like activity (TGF-β activity): did not display significant TGF-β activity

Substance: L-(Abu)-A-E-A-K (L[Abu]AEAK) [SEQ ID NO:6]
% Inhibition of incorporation of 3H-thymidine ([1]; 1 nM peptide): 33%
3H-Radioactivity ([1]; 1 nM peptide): 2.02 10^3 dpm
% Inhibition of incorporation of 3H-thymidine ([1]; 5 nM peptide): 35%
3H-Radioactivity ([1]; 5 nM peptide): 1.97 10^3 dpm

Substance: L-(Aib)-A-E-A-K (L[Aib]AEAK) [SEQ ID NO:4]
% Inhibition of incorporation of 3H-thymidine ([1]; 5 nM peptide): 35%
3H-Radioactivity ([1]; 5 nM peptide): 2.31 10^3 dpm
% Inhibition of incorporation of 3H-thymidine ([1]; 50 nM peptide): 46%
3H-Radioactivity ([1]; 50 nM peptide): 1.94 10^3 dpm
% Inhibition of incorporation of 3H-thymidine ([1]; 100 nM peptide): 60%
3H-Radioactivity ([1]; 100 nM peptide): 1.44 10^3 dpm
% Inhibition of incorporation of 3H-thymidine ([1]; 500 nM peptide): 55%
3H-Radioactivity ([1]; 500 nM peptide): 1.61 10^3 dpm
% Inhibition of incorporation of 3H-thymidine [1, 5]: 27%
3H-Radioactivity [1, 5]: 2.60 10^3 dpm

Substance: L-I-(Aib)-E-A-K (LI[Aib]EAK) [SEQ ID NO:22]
Bioactivity as agonist (tested as for DNA inhibition) [1]: active as an agonist

Substance: L-I-(D-Ala)-E-A-K (LI[dA]EAK) [SEQ ID NO:39]
Bioactivity as agonist (tested as for DNA inhibition) [1]: active as an agonist

Substance: L-I-(Nme-A)-E-A-K (LI[NMeA]EAK) [SEQ ID NO:5]
% Inhibition of incorporation of 3H-thymidine ([1]; 1 nM peptide): 47%
3H-Radioactivity ([1]; 1 nM peptide): 1.61 10^3 dpm
% Inhibition of incorporation of 3H-thymidine ([1]; 5 nM peptide): 42%
3H-Radioactivity ([1]; 5 nM peptide): 1.76 10^3 dpm
% Inhibition of incorporation of 3H-thymidine ([1]; 50 nM peptide): 41%
3H-Radioactivity ([1]; 50 nM peptide): 1.60 10^3 dpm
% Inhibition of incorporation of 3H-thymidine ([1]; 100 nM peptide): 40%
3H-Radioactivity ([1]; 100 nM peptide): 1.81 10^3 dpm
% Inhibition of incorporation of 3H-thymidine ([1]; 500 nM peptide): 53%
3H-Radioactivity ([1]; 500 nM peptide): 1.42 10^3 dpm

Substance: L-I-A-D-A-K (LIADAK; TGF-beta mimic) [SEQ ID NO:9]
Inhibition in comparison to cytomodulin (Inhib by new peptide/Inhib by cytomodulin) ([1]; 1 nM): 0.45
Inhibition in comparison to cytomodulin (Inhib by new peptide/Inhib by cytomodulin) ([1]; 10 nM): 0.87
Inhibition in comparison to cytomodulin (Inhib by new peptide/Inhib by cytomodulin) ([1]; 100 nM): 1.14
Inhibition in comparison to cytomodulin (Inhib by new peptide/Inhib by cytomodulin) ([1]; 1000 nM): 1.25

Substance: L-I-A-E-A-A (LIAEAA; TGF-beta mimic) [SEQ ID NO:11]
Inhibition in comparison to cytomodulin (Inhib by new peptide/Inhib by cytomodulin) ([1]; 1 nM): 1.16
Inhibition in comparison to cytomodulin (Inhib by new peptide/Inhib by cytomodulin) ([1]; 10 nM): 1.00
Inhibition in comparison to cytomodulin (Inhib by new peptide/Inhib by cytomodulin) ([1]; 100 nM): 1.17
Inhibition in comparison to cytomodulin (Inhib by new peptide/Inhib by cytomodulin) ([1]; 1000 nM): 1.85
Inhibition of DNA synthesis / proliferation of Mv-1-Lu cells (in words) [1]: at least as much activity as cytomodulin

Expression of collagenase (human dermal fibroblasts): decreased the expression
Substance: L-I-A-E-A-K (LIAEAK; TGF-beta mimic) [L2]
Growth and colony formation of NRK-49F cells in soft agar (in words) [2]: promoted the growth
TGF-β like activity (TGF-β activity): at least as much TGF-β like activity as cytomodulin
Expression of TGF-β [3]: increased the expression
Expression of alkaline phosphatase [3]: increased the expression
Expression of type I collagen [3]: increased the expression
Inhibition of DNA synthesis / proliferation of Mv-1-Lu cells (in words) [1]: inhibited the proliferation
Expression of TGF-β (human dermal fibroblasts): increased the expression
Expression of type I collagen (human dermal fibroblasts): increased the expression

Substance: L-I-A-G-E-G (LIAGEG; TGF-beta mimic) [SEQ ID NO:14]
Inhibition in comparison to cytomodulin (Inhib by new peptide/Inhib by cytomodulin) ([1]; 1 nM): 0.66
Inhibition in comparison to cytomodulin (Inhib by new peptide/Inhib by cytomodulin) ([1]; 10 nM): 0.85
Inhibition in comparison to cytomodulin (Inhib by new peptide/Inhib by cytomodulin) ([1]; 100 nM): 1.41
Inhibition in comparison to cytomodulin (Inhib by new peptide/Inhib by cytomodulin) ([1]; 1000 nM): 1.88

Substance: L-I-A-G-G-E (LIAGGE; TGF-beta mimic) [SEQ ID NO:13]
Inhibition in comparison to cytomodulin (Inhib by new peptide/Inhib by cytomodulin) ([1]; 1 nM): 1.10
Inhibition in comparison to cytomodulin (Inhib by new peptide/Inhib by cytomodulin) ([1]; 10 nM): 1.33
Inhibition in comparison to cytomodulin (Inhib by new peptide/Inhib by cytomodulin) ([1]; 100 nM): 1.45
Inhibition in comparison to cytomodulin (Inhib by new peptide/Inhib by cytomodulin) ([1]; 1000 nM): 1.90
Inhibition of DNA synthesis / proliferation of Mv-1-Lu cells (in words) [1]: inhibits thymidine uptake more than SEQ ID NO: 14

Substance: L-I-A-K-G-K (LIAKGK; TGF-beta mimic) [SEQ ID NO:16]
Inhibition in comparison to cytomodulin (Inhib by new peptide/Inhib by cytomodulin) ([1]; 10 nM): 0.65
Inhibition in comparison to cytomodulin (Inhib by new peptide/Inhib by cytomodulin) ([1]; 100 nM): 0.67

Substance: L-I-A-N-A-K (LIANAK; TGF-beta mimic) [SEQ ID NO:10]
Inhibition in comparison to cytomodulin (Inhib by new peptide/Inhib by cytomodulin) ([1]; 1 nM): 1.70
Inhibition in comparison to cytomodulin (Inhib by new peptide/Inhib by cytomodulin) ([1]; 10 nM): 2.00
Inhibition in comparison to cytomodulin (Inhib by new peptide/Inhib by cytomodulin) ([1]; 100 nM): 1.43
Inhibition in comparison to cytomodulin (Inhib by new peptide/Inhib by cytomodulin) ([1]; 1000 nM): 3.05
Inhibition of DNA synthesis / proliferation of Mv-1-Lu cells (in words) [1]: even more than cytomodulin at every concentration tested

Expression of collagenase (human dermal fibroblasts): decreased the expression
Substance: L-I-A-P-E-A (LIAPEA; TGF-beta mimic) [L1]
Growth and colony formation of NRK-49F cells in soft agar (in words) [2]: promoted the growth
TGF-β like activity (TGF-β activity): at least as much TGF-β like activity as cytomodulin
Expression of TGF-β [3]: increased the expression
Expression of alkaline phosphatase [3]: increased the expression
Expression of type I collagen [3]: increased the expression
Inhibition of DNA synthesis / proliferation of Mv-1-Lu cells (in words) [1]: inhibited the proliferation
Expression of TGF-β (human dermal fibroblasts): increased the expression
Expression of type I collagen (human dermal fibroblasts): increased the expression

Substance: L-I-A-Q-A-K (LIAQAK; TGF-beta mimic) [SEQ ID NO:12]
Inhibition in comparison to cytomodulin (Inhib by new peptide/Inhib by cytomodulin) ([1]; 1 nM): 0.90
Inhibition in comparison to cytomodulin (Inhib by new peptide/Inhib by cytomodulin) ([1]; 10 nM): 1.10
Inhibition in comparison to cytomodulin (Inhib by new peptide/Inhib by cytomodulin) ([1]; 100 nM): 0.80
Inhibition in comparison to cytomodulin (Inhib by new peptide/Inhib by cytomodulin) ([1]; 1000 nM): 1.56

Substance: L-I-P-E-A-K (LIPEAK; TGF-beta mimic) [SEQ ID NO:21]
Bioactivity as agonist (tested as for DNA inhibition) [1]: active as an agonist

Substance: TGF-β
Colony formation in soft agar ([2]; with EGF and PDGF): grew colonies
Colony formation in soft agar [4]: does not induce colony formation

Reference: patent US6638912B2, “Peptide compositions mimicking TGF-β activity” (The Regents of the University of California, priority 1995, dated 2003)
